Legend:
Assay in all cases: relative viability (nuclei count vs DMSO), 5 days (fraction); higher = more cells survive
GSK-J4 + Luminespib = compound: CCOC(=O)CCNc1cc(N2CCc3ccccc3CC2)nc(-c2ccccn2)n1 [GSK-J4] + CCNC(=O)c1noc(-c2cc(C(C)C)c(O)cc2O)c1-c1ccc(CN2CCOCC2)cc1 [Luminespib] (partner 0.01 µM)
Summary of the method: (§1)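 Cells from lung cancer lines were seeded into 1536-well plates and, one day later, dosed by pin tool. Treatments were either a single drug or a fixed dose of an anchor drug with five library-drug doses (not always all listed) in √10 steps. After 5 days, nuclei were stained in a one-step fixation (final 0.05% Triton X-100, 1% formaldehyde, 1 ug/ml Hoechst) and counted on 4× images, and relative viability is the treated-to-vehicle nuclei ratio, as the median of duplicate plates.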

GSK-J4 + Olaparib = compound: CCOC(=O)CCNc1cc(N2CCc3ccccc3CC2)nc(-c2ccccn2)n1 [GSK-J4] + O=C(c1cc(Cc2n[nH]c(=O)c3ccccc23)ccc1F)N1CCN(C(=O)C2CC2)CC1 [Olaparib] (partner 8 µM)
Summary of the method: as §1

AZ3146 + Pictilisib = compound: CN1CCC(CC1)OC2=CC(=C(C=C2)NC3=NC=C4C(=N3)N(C(=O)N4C)C5CCCC5)OC [AZ3146] + CS(=O)(=O)N1CCN(Cc2cc3nc(-c4cccc5[nH]ncc45)nc(N4CCOCC4)c3s2)CC1 [Pictilisib] (partner 1 µM)
Summary of the method: as §1

AZ3146 + AZD7762 = compound: CN1CCC(CC1)OC2=CC(=C(C=C2)NC3=NC=C4C(=N3)N(C(=O)N4C)C5CCCC5)OC [AZ3146] + NC(=O)Nc1cc(-c2cccc(F)c2)sc1C(=O)N[C@H]1CCCNC1 [AZD7762] (partner 0.2 µM)
Summary of the method: as §1

Row | Cell Line | relative viability (GSK-J4 + Luminespib; first compound 0.5 µM) | relative viability (GSK-J4 + Luminespib; first compound 1.581 µM) | relative viability (GSK-J4 + Luminespib; first compound 15.81 µM) | relative viability (GSK-J4 + Luminespib; first compound 50 µM) | relative viability (GSK-J4 + Olaparib; first compound 0.5 µM) | relative viability (GSK-J4 + Olaparib; first compound 1.581 µM) | relative viability (GSK-J4 + Olaparib; first compound 5 µM) | relative viability (GSK-J4 + Olaparib; first compound 15.81 µM) | relative viability (GSK-J4 + Olaparib; first compound 50 µM) | relative viability (AZ3146 + Pictilisib; first compound 0.253 µM) | relative viability (AZ3146 + Pictilisib; first compound 0.8 µM) | relative viability (AZ3146 + Pictilisib; first compound 2.53 µM) | relative viability (AZ3146 + Pictilisib; first compound 8 µM) | relative viability (AZ3146 + AZD7762; first compound 0.253 µM) | relative viability (AZ3146 + AZD7762; first compound 0.8 µM) | relative viability (AZ3146 + AZD7762; first compound 2.53 µM) | relative viability (AZ3146 + AZD7762; first compound 8 µM) | relative viability (GSK-J4 + Luminespib; first compound 5 µM) | relative viability (AZ3146 + Pictilisib; first compound 0.08 µM) | relative viability (AZ3146 + AZD7762; first compound 0.08 µM)
1 | BEN | 0.297 | 0.373 | 0.289 | 0.189 | 1.18 | 0.99 | 0.776 | 0.954 | 0.779 | 0.51 | 0.403 | 0.533 | 0.573 | 0.608 | 0.668 | 0.589 | 0.68 | – | – | –
2 | NCI-H1437 | 1.05 | 1.1 | 1.03 | 0.739 | 0.587 | 0.596 | 0.601 | 0.609 | 0.301 | 0.376 | 0.45 | 0.393 | 0.461 | 1.2 | 1.09 | 1.14 | 1.1 | 1.1 | 0.432 | 0.887
3 | NCI-H1666 | 1.02 | 0.925 | 1.03 | 0.735 | 0.684 | 0.676 | 0.786 | 0.746 | 0.699 | 0.507 | 0.485 | 0.582 | 0.648 | 0.806 | 0.808 | 0.74 | 0.887 | 1.11 | 0.307 | 0.819
4 | NCI-H2085 | 0.477 | 0.394 | 0.41 | 0.309 | 0.773 | 0.734 | 0.654 | 0.707 | 0.627 | 0.433 | 0.506 | 0.547 | 0.438 | 0.974 | 0.95 | 1.04 | 0.708 | 0.419 | 0.486 | 0.912
5 | LXF-289 | 0.648 | 0.639 | 0.627 | 0.507 | 1.03 | 1.01 | 1.14 | 0.991 | 0.891 | 0.776 | 0.779 | 0.824 | 0.642 | 1.16 | 1.05 | 1.1 | 1.05 | 0.785 | 0.693 | 1.02
6 | NCI-H322M | 0.857 | 0.756 | 0.646 | 0.542 | 0.829 | 0.729 | 0.935 | 0.782 | 0.658 | 0.478 | 0.439 | 0.491 | 0.512 | 0.529 | 0.581 | 0.825 | 0.506 | 0.953 | 0.585 | 0.595
7 | LU99A | 0.201 | 0.267 | 0.244 | 0.223 | 0.248 | 0.265 | – | 0.207 | 0.205 | 0.351 | 0.32 | 0.376 | 0.351 | 0.378 | 0.295 | 0.276 | 0.264 | – | 0.318 | –
8 | NCI-H650 | 0.688 | 0.682 | 0.749 | 0.519 | 0.356 | 0.371 | – | 0.272 | 0.296 | 0.837 | 0.634 | 0.905 | 1.01 | 0.652 | 0.952 | 1.06 | 1.21 | 0.597 | 0.661 | 0.915
9 | PC-14 | 0.216 | 0.159 | 0.126 | 0.125 | 0.304 | 0.271 | 0.195 | 0.228 | 0.227 | 0.763 | 0.725 | 0.71 | 0.518 | 0.355 | 0.415 | 0.382 | 0.294 | 0.151 | 0.68 | 0.343
10 | HARA | 0.585 | – | 0.675 | 0.49 | 0.767 | 0.761 | – | 0.888 | 0.343 | 0.537 | 0.387 | 0.594 | 0.244 | 0.416 | 0.344 | 0.21 | 0.169 | – | 0.264 | 0.189
11 | NCI-H1944 | 0.762 | 0.711 | 0.649 | 0.799 | 0.389 | 0.373 | – | 0.376 | 0.358 | 0.34 | 0.323 | 0.376 | 0.364 | 0.509 | 0.482 | 0.516 | 0.469 | 0.851 | – | 0.311
12 | LK-2 | 0.191 | – | 0.193 | 0.159 | 0.675 | 0.628 | 0.98 | 0.592 | 0.364 | – | – | 0.668 | 0.668 | – | 0.372 | 0.347 | 0.286 | 0.151 | 0.49 | –
13 | HCC-44 | 1.02 | 0.897 | 0.939 | 0.747 | 0.945 | 0.945 | 0.999 | 1.08 | 0.906 | 0.528 | 0.815 | 0.618 | 0.472 | 0.978 | 1.12 | 1 | 0.979 | – | 0.543 | 1.02
14 | CAL-12T | 0.83 | 0.549 | 0.205 | 0.518 | 0.668 | 0.63 | 0.772 | 0.673 | 0.548 | – | 0.475 | 0.554 | 0.481 | 0.653 | 0.678 | 0.604 | 0.611 | 0.244 | 0.334 | 0.656
15 | NCI-H2405 | 0.774 | 0.674 | 0.511 | 0.653 | 0.849 | 0.836 | – | 0.815 | 0.777 | – | 0.418 | 0.451 | 0.58 | 0.771 | 0.702 | 0.589 | 0.618 | – | 0.533 | 0.838
16 | NCI-H1395 | 0.529 | 0.621 | 0.723 | 0.536 | 0.435 | 0.48 | 0.399 | 0.45 | 0.406 | 0.628 | 0.539 | 0.623 | 0.726 | 0.389 | – | 0.379 | 0.4 | 0.62 | 0.536 | 0.352
17 | 201T | 1.05 | 1.1 | 1.02 | 0.992 | 0.81 | 0.581 | 0.831 | 0.797 | 0.81 | 0.643 | 0.656 | 0.707 | 0.596 | 0.643 | 0.634 | 0.553 | 0.594 | 1.12 | 0.634 | 0.534
18 | NCI-H358 | 0.292 | 0.304 | 0.397 | 0.337 | 0.574 | – | 0.646 | 0.521 | 0.552 | 0.39 | 0.394 | 0.398 | 0.326 | 0.469 | 0.363 | 0.581 | 0.313 | 0.354 | 0.355 | 0.346
19 | NCI-H596 | 0.981 | 0.969 | 0.941 | 0.807 | 0.668 | 0.726 | 0.734 | 0.738 | 0.586 | 0.374 | 0.413 | 0.302 | 0.41 | 1.21 | 1.15 | 0.986 | 1.13 | 1.23 | 0.361 | 1.11
20 | NCI-H838 | 0.299 | 0.335 | 0.247 | 0.168 | 0.696 | 0.653 | 0.514 | 0.568 | 0.411 | 0.467 | 0.39 | 0.387 | 0.266 | 0.921 | 0.844 | 0.963 | 0.698 | – | 0.557 | 0.931
21 | NCI-H1651 | 0.703 | 0.728 | 0.701 | 0.625 | 0.178 | 0.158 | 0.184 | 0.182 | 0.18 | 0.668 | 0.576 | 0.475 | 0.489 | 0.382 | 0.351 | 0.398 | 0.385 | 0.727 | 0.556 | 0.277
22 | ABC-1 | 0.373 | 0.496 | 0.52 | 0.396 | 0.981 | 0.929 | 0.605 | 0.651 | 0.488 | 0.866 | 0.687 | 0.878 | 0.723 | 0.717 | 0.829 | 0.893 | 1 | 0.594 | 0.566 | 0.756
23 | LOU-NH91 | 0.347 | 0.329 | 0.267 | 0.246 | 0.932 | 0.859 | 0.691 | 0.872 | 0.802 | 0.542 | 0.459 | 0.494 | 0.474 | 0.755 | 0.802 | 0.775 | 0.743 | 0.254 | 0.475 | 0.778
24 | H3255 | 0.752 | 0.726 | 0.827 | 0.683 | 0.553 | 0.521 | 0.523 | 0.445 | 0.362 | 0.49 | 0.466 | 0.507 | 0.518 | 0.837 | 0.768 | 0.825 | 0.841 | 0.693 | 0.514 | 0.863

— the supplement of paper PMC10307832
